Test results as given in PMC10545747, “Development of cyclopeptide inhibitors of cGAS targeting protein-DNA interaction and phase separation” (Nature Communications, 2023).
“And” between values parts separate entries of the source, which are not always exact repeats. Identical values can stand only once. “Also recorded” adds a separate entry of the source. Square brackets hold non-standard residues; d marks the D form. Peptide text beside a SMILES is read from it.

Legend:
hcGAS-FL (D191R) mutant = biological target: T1, hcGAS-FL (D191R) mutant (Homo sapiens, UniProt Q8N884, D191R); assay: Surface plasmon resonance (SPR); assay type: binding
T1 construct: The gene encoding full-length human cGAS (hcGAS-FL); 6xHis-SUMO (N, cleaved yes); made in house; host or cells: Escherichia coli BL21 (DE3)
Description: All SPR binding studies were performed with a Biacore 8 K instrument (GE Healthcare Life Sciences). hcGAS-FL / hcGAS-ΔN (1 mg mL^−1) was immobilized in a CM5 chip by EDC/NHS method. The tested peptide was diluted with running buffer (20 mM HEPES, pH 7.5, 125 mM KCl,10 mM MgCl2). All the samples contained the same concentration of DMSO (0.5%). The tested peptide was injected at a flow rate of 30 μL min^−1 for 200 s of association, followed by 200 s of disassociation at 25 °C. The final graphs were obtained by subtracting blank sensorgrams. The data were analyzed with Biacore Insight Evaluation software.
Supplementary Fig. 5. The binding site of XQ2 may locate at the cGAS-dsDNA interface. (a) The 2D schematic of docked structure of XQ2 with cGAS (PDB ID: 4O69). (b) Structure activity relationship (SAR) analysis of XQ2 a nd its analogues based on the docked structure of the peptides with cGAS. (c) FAM-ISD (40nM) was incubated with the indicated doses of hcGAS-FL or hcGAS-FL (D191R) mutant, and the polarization signal was detected by a microplate reader. (d) SPR analysis of the binding of hcGAS-FL (D191R) mutant with XQ2. The binding affinity (Kd) […]
Data are representative of three independent experiments in (c). (Data […]
Source data are provided as a Source Data file.
XQ- Sequence Inhibition % […]

human cGAS (hcGAS) = human cGAS (hcGAS) (Homo sapiens, UniProt Q8N884); assay: biochemical; conditions: MST
Description: The binding ability of XQ2 with Cy5-ISD and XQ2 with human cGAS were tested using NanoTemper Monolith NT.115 instrument (20% LED, 40% MST power) at 25 °C. Serial dilutions of XQ2 were mixed with 10 nM of Cy5-ISD or 100 nM of fluorescent labeled hcGAS, incubated for 10 min at room temperature in HEPES buffer (50 mM HEPES, pH 7.5, 200 mM NaCl, 20 mM MgCl2, 0.05% Tween 20) with or without 1 mM ATP and 0.5 mM GTP or 2 M (NH4)2SO4 (Sigma-Aldrich). Excitation was optimized by varying the power to obtain fluorescence intensities above 200 counts. Data were analyzed by using the MO.Affinity Analysis software.

L929 cells = assay: HSV-1 cytopathogenic effect, crystal violet staining; assay type: cell-based, mouse; conditions: 10 μM
Description: L929 cells were seeded into 12-well plates at a density of 5 × 10^5 cells per well, and living cells were stained with crystal violet staining solution (Beyotime Biotechnology) according to the manufacturer’s instructions.

Hela cells = assay: HSV-1 cytopathogenic effect, CCK-8 viability (rebuttal Fig. R1); assay type: cell-based, human; conditions: 10 μM
Description: We tested the effect of XQ2 on human cervical cancer
HSV-1 infection given that epithelial cells are generally weak responders of cGAS-
cells and THP1 cells were pretreated for 3 h with DMSO or XQ2 (10 μM), followed by
the indicated titer of HSV-1 infection. The cell v iability was measured by CCK-8 assay.

Trex1^-/- mice = Trex1^-/- mice model of autoimmune disease (survival, H&E, heart qPCR, antinuclear antibody); assay type: in vivo, mouse; design: Score per animal, Heart (Fig. 7d) / Score per animal, Stomach (Fig. 7d) / Score per animal, Tongue (Fig. 7d) / Score per animal, Kidney (Fig. 7d) / Score per animal, Muscle (Fig. 7d): scale not given here; Ifnb1 mRNA level (Fig. 7e) / Cxcl10 mRNA level (Fig. 7e) / Il6 mRNA level (Fig. 7e): unit not given here
Text: Aberrant accumulation of cytosolic self-dsDNA caused by loss-of-function mutations in Trex1 leads to overactivation of cGAS-STING pathway, which is associated with autoinflammatory diseases. To evaluate whether the optimized analogue XQ2B inhibits the overactivation of cGAS-STING pathway due to Trex1 deficiency, we first tested the effects of XQ2B on the expression of Ifnb1, Cxcl10 and Il6 in BMDMs harvested from Trex1^-/- mice (Supplementary Fig. 9a, b). […] We next evaluated the anti-inflammatory effect of XQ2B in Trex1^-/- mice. XQ2B (10 mg/kg) was intravenously injected into mice every other day. Six animals from each group were sacrificed on day seven to assess tissue pathology, and the rest (10 mice per group) were used to analyze survival for up to 11 days (Fig. 7b). […] Mice were killed and tissues were collected on day seven for histology and mRNA analysis.
C57BL/6 6–8 weeks old wild type (WT) mice were purchased from Gempharmatech. C57BL/6 Trex1^+/- mice were purchased from Cyagen. Trex1^-/- mice were generated by further mating the male and female Trex1^+/- mice, and 8-week-old male Trex1^-/- mice were used in the experiment. Mice were housed in groups of up to 5 mice/cage at 18 °C − 24 °C ambient temperatures with 40–60% humidity. Mice were maintained on a 12 h light/ dark cycle 6 am to 6 pm. Food and water were available ad libitum. Femurs and tibias were removed from sex-matched mice of 6–8 weeks old, and the ends were clipped. Marrow was pushed from bones by using a syringe, and cell clumps were broken apart into cell particles by pipetting in PBS, and passed through a 70 μm cell strainer. Cells were resuspended in red blood cell lysis buffer (Solarbio) for 5 min after being centrifuged with 200 × g for 5 min, and were resuspended in cell culture media (DMEM) with an additional M-CSF (50 ng/ml) after centrifugation, and then were seeded into a 12-well plate. Half of the cell culture media was replaced with a fresh medium on the third day, and performed a complete media change on the fifth day. BMDMs were used for subsequent experiments after the seventh day. All the animal experiments in these studies were approved and overseen by the ethics committee of the Laboratory Animal Center of Peking University Shenzhen Graduate School in accordance with the Policy on the Care, Welfare, and Treatment of Laboratory Animals. The assigned approval or accreditation number is AP0020005.
Tissues were resected and fixed successively in 4% paraformaldehyde, and embedded in paraffin according to the standard procedure, and then sectioned into 10-μm slices and placed on positively charged microscope slides. Sections of the brain were subjected to immunohistochemical (IHC) staining with an anti-HSV-1 antibody (Abcam, 1:100) and HRP-conjugated anti-rabbit IgG antibody (Cell Signaling, Cat# 7074, 1:200) according to standard procedures. Sections of the heart, stomach, tongue, kidney and muscle were stained with hematoxylin and eosin. Tissue sections were visualized using an Olympus IX73 microscope (20× Objective).
Anti-nuclear antibodies were performed with 1:160 diluted sera by using a FLUORO HEPANA TEST kit (MBL BEIJING BIOTECH) according to the manufacturer’s protocols.

[1] = 10 mg/kg i.v. every other day, day seven

human cGAS (hcGAS), sequence (Q8N884 whole entry): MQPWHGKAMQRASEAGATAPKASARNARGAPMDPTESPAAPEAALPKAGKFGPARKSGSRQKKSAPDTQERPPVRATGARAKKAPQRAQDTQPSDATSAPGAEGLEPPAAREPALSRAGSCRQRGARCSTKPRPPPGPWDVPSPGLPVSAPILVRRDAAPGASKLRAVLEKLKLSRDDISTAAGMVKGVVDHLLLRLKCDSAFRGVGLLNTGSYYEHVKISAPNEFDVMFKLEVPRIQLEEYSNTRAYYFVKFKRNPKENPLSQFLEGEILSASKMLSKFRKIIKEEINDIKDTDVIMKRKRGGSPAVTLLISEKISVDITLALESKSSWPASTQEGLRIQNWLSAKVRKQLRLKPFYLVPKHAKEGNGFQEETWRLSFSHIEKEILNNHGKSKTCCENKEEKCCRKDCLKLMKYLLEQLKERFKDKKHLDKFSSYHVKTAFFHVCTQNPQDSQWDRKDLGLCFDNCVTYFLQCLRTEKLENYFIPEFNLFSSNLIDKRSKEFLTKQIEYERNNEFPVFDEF
T1 sequence (Q8N884 whole entry D191R): as the sequence (Q8N884 whole entry) above, with D191R counted along it

SMILES | binding to hcGAS-FL (D191R), SPR (hcGAS-FL (D191R) mutant) | Kd (human cGAS (hcGAS); absence of ATP/GTP and (NH4)2SO4 (Mock)) | Kd (human cGAS (hcGAS); in the presence of (NH4)2SO4 (2M)) | Kd (human cGAS (hcGAS); in the presence of ATP (1mM) and GTP (0.5mM)) | HSV-1-induced cytopathogenic effect in L929 cells (L929 cells) | HSV-1 cytopathogenic effect in Hela cells (Hela cells) | serum level of antinuclear antibody (Trex1^-/- mice; 10 mg/kg i.v. every other day) | heart Ifnb1, Cxcl10 and Il6 mRNA (Trex1^-/- mice; [1]) | tissue inflammation, H&E (Trex1^-/- mice; [1]) | survival of Trex1^-/- mice (Trex1^-/- mice; 10 mg/kg i.v. every other day, up to 11 days, n = 10, 3 of 10 untreated died) | Score per animal, Heart (Fig. 7d) (Trex1^-/- mice; KO(XQ2B)) | Score per animal, Kidney (Fig. 7d) (Trex1^-/- mice; KO(XQ2B)) | Score per animal, Muscle (Fig. 7d) (Trex1^-/- mice; KO(XQ2B)) | Score per animal, Stomach (Fig. 7d) (Trex1^-/- mice; KO(XQ2B)) | Score per animal, Tongue (Fig. 7d) (Trex1^-/- mice; KO(XQ2B)) | Cxcl10 mRNA level (Fig. 7e) (Trex1^-/- mice; Trex1 KO+XQ2B, per animal) | Ifnb1 mRNA level (Fig. 7e) (Trex1^-/- mice; Trex1 KO+XQ2B, per animal) | Il6 mRNA level (Fig. 7e) (Trex1^-/- mice; Trex1 KO+XQ2B, per animal)
CC(C)C[C@@H]1NC(=O)[C@H](CCCNC(=N)N)NC(=O)[C@H](C(C)C)NC(=O)[C@@H]2CCCN2C(=O)[C@@H](Cc2ccccc2)NC(=O)[C@H](CC(C)C)NC(=O)[C@H](CCCNC(=N)N)NC(=O)[C@H](C(C)C)NC(=O)[C@H](C)NC(=O)[C@@H](Cc2ccccc2)NC1=O [XQ2, Cyclo (LfAVRLfPVR)] (cyclo(L[dF]AVRL[dF]PVR)) | markedly reduced the binding affinity of XQ2 with cGAS; also recorded: could not be determined by saturation binding | 45.3 ± 26.9 µM | 1.8 ± 0.6 µM | 4.5 ± 1.6 µM | promotion of XQ2 on HSV-1-induced cytopathogenic effect in mouse fibroblast L929 cells | further enhanced the CPE | – | – | – | – | – | – | – | – | – | – | – | –
CC(C)C[C@@H]1NC(=O)[C@H](CCCNC(=N)N)NC(=O)[C@H](C(C)C)NC(=O)[C@@H]2CCCN2C(=O)[C@@H](Cc2ccccc2)NC(=O)[C@H](CC(C)C)NC(=O)[C@H](CCCNC(=N)N)NC(=O)[C@H]([C@@H](C)O)NC(=O)[C@H](C)NC(=O)[C@@H](Cc2ccccc2)NC1=O [XQ2B] (cyclo([dF]ATRL[dF]PVRL)) | – | – | – | – | – | – | markedly reduced by XQ2B treatment | significantly suppressed the mRNA level of Ifnb1, Cxcl10 and Il6 caused by Trex1 deficiency | ameliorates rather than reverses the systemic inflammation in Trex1-/- mice; also recorded: significantly attenuated the inflammation | none of the 10 mice treated with XQ2B died during treatment | 5 (2×) and 8 (2×) and 6 and 4 and 7 and 9 | 3 (2×) and 6 and 5 (2×) and 2 and 4 and 7 | 4 (3×) and 2 and 6 and 3 (2×) and 5 | 3 and 8 (2×) and 6 and 9 and 5 (2×) and 7 | 3 and 7 (2×) and 8 and 5 (2×) and 6 and 4 | 99.6532 and 144.536 and 126.503 and 174.75 and 186.166 | 12.3782 and 6.326 and 6.444 and 5.852 and 6.524 | 3.8548 and 4.605 and 4.215 and 10.789 and 5.351
